In patent US12037340B2, “Pentacyclic derivatives as Zika virus inhibitors” (Gilead Sciences, Inc., priority 2021, dated 2024):

Tested on: ZIKV
Test: microbe, parasite or virus in culture
Assay type: cell-based, Zika virus
Conditions: 48 hrs

For `CC[C@@H](C)[C@H](NC(=O)OC)C(=O)N1[C@@H](C)CC[C@H]1c1nc(C(C)C)c(-c2ccc3c(c2)COc2cc4c(ccc5nc([C@@H]6CC[C@H](C)N6C(=O)[C@@H](NC(=O)OC)[C@H](C)CC)[nH]c54)cc2-3)[nH]1` [Compound 46, methyl ((2S,3R)-1-((2S,5S)-2-(4-isopropyl-5-(2-((2S,5S)-1-((methoxycarbonyl)-L-alloisoleucyl)-5-methylpyrrolidin-2-yl)-1,11-dihydroisochromeno[4′,3′:6,7]naphtho[1,2-d]imidazol-9-yl)-1H-imidazol-2-yl)-5-methylpyrrolidin-1-yl)-3-methyl-1-oxopentan-2-yl)carbamate], the EC50 (Zika virus, Huh-7) was 26.7 nM.

`COC(=O)N[C@H](C(=O)N1[C@@H](C)CC[C@H]1c1nc(C(C)C)c(-c2ccc3c(c2)COc2cc4c(ccc5nc([C@@H]6CC[C@H](C)N6C(=O)[C@@H](NC(=O)OC)C(C)(C)CF)[nH]c54)cc2-3)[nH]1)C(C)(C)CF` [Compound 47, methyl ((S)-4-fluoro-1-((2S,5S)-2-(5-(2-((2S,5S)-1-((S)-4-fluoro-2-((methoxycarbonyl)amino)-3,3-dimethylbutanoyl)-5-methylpyrrolidin-2-yl)-1,11-dihydroisochromeno[4′,3′:6,7]naphtho[1,2-d]imidazol-9-yl)-4-isopropyl-1H-imidazol-2-yl)-5-methylpyrrolidin-1-yl)-3,3-dimethyl-1-oxobutan-2-yl)carbamate] showed an EC50 (Zika virus, Huh-7) of 21.7 nM.

“methyl ((2S,3S)-1-((S)-6-(4-chloro-5-(2-((S)-5-((methoxycarbonyl)-L-isoleucyl)-5-azaspiro[2.4]heptan-6-yl)-1-dihydroisochromeno[4′,3′:6,7]naphtho[1,2-d]imidazol-9-yl)-1H-imidazol-2-yl)-5-azaspiro[2.4]heptan-5-yl)-3-methyl-1-oxopentan-2-yl)carbamate [Compound 3]” gave an EC50 of 18.6 nM.

Compound “methyl ((S)-1-((2S,5S)-2-(5-(2-((2S,5S)-1-(O-(tert-butyl)-N-(methoxycarbonyl)-L-threonyl)-5-methylpyrrolidin-2-yl)-1,11-dihydroisochromeno[4′,3′:6,7]naphtho[1,2-d]imidazol-9-yl)-4-chloro-1H-imidazol-2-yl)-5-methylpyrrolidin-1-yl)-3-methyl-1-oxobutan-2-yl)carbamate [Compound 1]” has an EC50 of 24.9 nM.
